One molecule from patent US20090149512A1, “Use of Ghrelin Antagonists to the Treatment of Certain CNS Diseases” (Novo Nordisk A/S, priority 2004, published 2009) can be followed below.

This experiment concerns diabetic ob/ob mice. Nature of the experiment: Assessment of level of wakefulness/activity (locomotor activity, light-beam interruption method). The note with it: 20 mg/kg i.p. in saline once daily for 14 days, male, 8 months old. It counts as in vivo. As to the method: The effect of an administered substance (for example a ghrelin antagonist) on the level of wakefulness or activity in animal subjects (for example, mice) may be assessed by means of an activity test in which the primary measurement parameter is locomotor activity.
Baseline activity is determined for all the animals 1-2 days prior to administration of saline (placebo) or ghrelin antagonist. The animals are subsequently monitored, either acutely or at the end of a more sub-chronic or chronic treatment lasting several days or weeks, for behavioural sensitization. On testing days, the animals are allowed to acclimatize to the behavioural monitors for 30 minutes prior to data accumulation if the monitors in question are different from their “home” cages. Activity is recorded for at least 1 hour on each of the testing days (baseline and post-treatment test). In a suitable arrangement, transparent chambers of Plexiglas™ are equipped with aluminium frames on which are mounted infrared light emitters and detectors. The detectors are interfaced to a personal computer (PC). Behavioural or psychomotor activity is defined as the total number of light-beam interruptions recorded during each testing session. […]

On to `CNC(=O)c1noc(C(Cc2ccccc2)N(C)C(=O)[C@@H](Cc2ccc3ccccc3c2)NC(=O)/C=C/C(C)(C)N)n1` (single isomer, unassigned) [D2], for which the “behaviour of treated animals when observed” value was “awake and interested in their environment”. The “level of wakefulness/activity (locomotor activity) assessed using the light-beam interruption method” value (versus saline control) is “became surprisingly active and awake for the duration of the study”.
